From ChEMBL document CHEMBL4715697, “Synthesis and biological activity of benzamide DNA minor groove binders” (2016)

Tests used:
Assay type in all cases: functional
SK-MEL-28 = assay: Growth inhibition of human SK-MEL-28 cells assessed as cell growth at 100 uM incubated for 48 hrs by sulforhodamine B assay relative to control; conditions: read-out: Activity
DU-145 = assay: Growth inhibition of human DU-145 cells assessed as cell growth at 1 uM incubated for 48 hrs by sulforhodamine B assay relative to control; conditions: read-out: Activity
MDA-MB-435 = assay: Growth inhibition of human MDA-MB-435 cells assessed as cell growth at 0.01 uM incubated for 48 hrs by sulforhodamine B assay relative to control; conditions: read-out: Activity
NCI-H522 [1] = assay: Growth inhibition of human NCI-H522 cells assessed as cell growth at 0.01 uM incubated for 48 hrs by sulforhodamine B assay relative to control; conditions: read-out: Activity
Hs-578T [2] = assay: Growth inhibition of human Hs-578T cells assessed as cell growth at 0.01 uM incubated for 48 hrs by sulforhodamine B assay relative to control; conditions: read-out: Activity
SK-OV-3 [3] = assay: Growth inhibition of human SK-OV-3 cells assessed as cell growth at 0.1 uM incubated for 48 hrs by sulforhodamine B assay relative to control; conditions: read-out: Activity
HL-60(TB) [4] = assay: Growth inhibition of human HL-60(TB) cells assessed as cell growth at 0.01 uM incubated for 48 hrs by sulforhodamine B assay relative to control; conditions: read-out: Activity
SK-MEL-5 = assay: Growth inhibition of human SK-MEL-5 cells incubated for 48 hrs by sulforhodamine B assay
SNB-75 [5] = assay: Growth inhibition of human SNB-75 cells assessed as cell growth at 0.1 uM incubated for 48 hrs by sulforhodamine B assay relative to control; conditions: read-out: Activity
RPMI-8226 = assay: Growth inhibition of human RPMI-8226 cells incubated for 48 hrs by sulforhodamine B assay
HL-60(TB) [6] = assay: Growth inhibition of human HL-60(TB) cells assessed as cell growth at 100 uM incubated for 48 hrs by sulforhodamine B assay relative to control; conditions: read-out: Activity
OVCAR-5 = assay: Growth inhibition of human OVCAR-5 cells assessed as cell growth at 0.1 uM incubated for 48 hrs by sulforhodamine B assay relative to control; conditions: read-out: Activity
LOX IMVI = assay: Growth inhibition of human LOX IMVI cells assessed as cell growth at 0.1 uM incubated for 48 hrs by sulforhodamine B assay relative to control; conditions: read-out: Activity
HT-29 = assay: Growth inhibition of human HT-29 cells assessed as cell growth at 1 uM incubated for 48 hrs by sulforhodamine B assay relative to control; conditions: read-out: Activity
SF-539 = assay: Growth inhibition of human SF-539 cells assessed as cell growth at 0.01 uM incubated for 48 hrs by sulforhodamine B assay relative to control; conditions: read-out: Activity
CAKI-1 [7] = assay: Growth inhibition of human CAKI-1 cells assessed as cell growth at 0.1 uM incubated for 48 hrs by sulforhodamine B assay relative to control; conditions: read-out: Activity
BT-549 = assay: Growth inhibition of human BT-549 cells assessed as cell growth at 1 uM incubated for 48 hrs by sulforhodamine B assay relative to control; conditions: read-out: Activity
OVCAR-4 [8] = assay: Growth inhibition of human OVCAR-4 cells assessed as cell growth at 0.1 uM incubated for 48 hrs by sulforhodamine B assay relative to control; conditions: read-out: Activity
Hs-578T [9] = assay: Growth inhibition of human Hs-578T cells assessed as cell growth at 0.1 uM incubated for 48 hrs by sulforhodamine B assay relative to control; conditions: read-out: Activity
NCI-H23 = assay: Growth inhibition of human NCI-H23 cells assessed as cell growth at 100 uM incubated for 48 hrs by sulforhodamine B assay relative to control; conditions: read-out: Activity
SN12C = assay: Growth inhibition of human SN12C cells assessed as cell growth at 0.1 uM incubated for 48 hrs by sulforhodamine B assay relative to control; conditions: read-out: Activity
SK-OV-3 [10] = assay: Growth inhibition of human SK-OV-3 cells incubated for 48 hrs by sulforhodamine B assay
KM12 = assay: Growth inhibition of human KM12 cells assessed as cell growth at 1 uM incubated for 48 hrs by sulforhodamine B assay relative to control; conditions: read-out: Activity
NCI-H322M = assay: Growth inhibition of human NCI-H322M cells assessed as cell growth at 1 uM incubated for 48 hrs by sulforhodamine B assay relative to control; conditions: read-out: Activity
MDA-MB-468 = assay: Growth inhibition of human MDA-MB-468 cells incubated for 48 hrs by sulforhodamine B assay
CAKI-1 [11] = assay: Growth inhibition of human CAKI-1 cells assessed as cell growth at 0.01 uM incubated for 48 hrs by sulforhodamine B assay relative to control; conditions: read-out: Activity
OVCAR-3 = assay: Growth inhibition of human OVCAR-3 cells assessed as cell growth at 1 uM incubated for 48 hrs by sulforhodamine B assay relative to control; conditions: read-out: Activity
NCI-H522 [12] = assay: Growth inhibition of human NCI-H522 cells assessed as cell growth at 1 uM incubated for 48 hrs by sulforhodamine B assay relative to control; conditions: read-out: Activity
OVCAR-4 [13] = assay: Growth inhibition of human OVCAR-4 cells assessed as cell growth at 100 uM incubated for 48 hrs by sulforhodamine B assay relative to control; conditions: read-out: Activity
HOP-62 = assay: Growth inhibition of human HOP-62 cells assessed as cell growth at 100 uM incubated for 48 hrs by sulforhodamine B assay relative to control; conditions: read-out: Activity
HCT-15 = assay: Growth inhibition of human HCT-15 cells incubated for 48 hrs by sulforhodamine B assay
SNB-75 [14] = assay: Growth inhibition of human SNB-75 cells assessed as cell growth at 100 uM incubated for 48 hrs by sulforhodamine B assay relative to control; conditions: read-out: Activity
SNB-75 [15] = assay: Growth inhibition of human SNB-75 cells incubated for 48 hrs by sulforhodamine B assay
786-0 = assay: Growth inhibition of human 786-0 cells incubated for 48 hrs by sulforhodamine B assay
[16] = read-out: LC50 (the source's name)
[17] = read-out: pLC50 (the source's name) (converted)

Work on `CC(=O)Nc1cc(CO[Si](C)(C)C(C)(C)C)cc(NC(=O)c2ccc(C(=O)Nc3cccc(NC(=O)CCCN(C)C)c3)cc2)c1` yielded a growth at 100 µM (SK-MEL-28) of 74%, a growth at 1 µM (DU-145) of 88% and a growth at 0.01 µM (MDA-MB-435) of 98%. The growth at 0.01 µM (NCI-H522 [1]) was 89%, the growth at 0.01 µM (Hs-578T [2]) was 99% and the growth at 0.1 µM (SK-OV-3 [3]) was 98%. For the same molecule, the growth at 0.01 µM (HL-60(TB) [4]) was 102%, the GI50 (SK-MEL-5; read-out: GI50) was greater than 75 µM and the LC50 (SK-MEL-5; read-out: LC50) was greater than 75 µM. It also gave a TGI (SK-MEL-5; read-out: TGI) greater than 75 µM, a GI50 (SK-MEL-5; read-out: pGI50 (converted)) greater than 75.9 µM and an LC50 (SK-MEL-5; read-out: pLC50 (converted)) greater than 75.9 µM. For the same molecule, the TGI (SK-MEL-5; read-out: pTGI) was greater than 75.9 µM, the growth at 0.1 µM (SNB-75 [5]) was 83% and the GI50 (RPMI-8226; read-out: GI50) was greater than 75 µM. The CC50 (RPMI-8226; [16]) was greater than 75 µM, the TGI (RPMI-8226; read-out: TGI) was greater than 75 µM and the GI50 (RPMI-8226; read-out: pGI50 (converted)) was greater than 75.9 µM. The CC50 (RPMI-8226; [17]) was greater than 75.9 µM, the TGI (RPMI-8226; read-out: pTGI) was greater than 75.9 µM and the growth at 100 µM (HL-60(TB) [6]) was 88%. For the same molecule, the growth at 0.1 µM (OVCAR-5) was 93%, the growth at 0.1 µM (LOX IMVI) was 94% and the growth at 1 µM (HT-29) was 113%. It also gave a growth at 0.01 µM (SF-539) of 95%, a growth at 0.1 µM (CAKI-1 [7]) of 91% and a growth at 1 µM (BT-549) of 99%. For the same molecule, the growth at 0.1 µM (OVCAR-4 [8]) was 96%, the growth at 0.1 µM (Hs-578T [9]) was 121% and the growth at 100 µM (NCI-H23) was 84%. For the same molecule, the growth at 0.1 µM (SN12C) was 95%, the GI50 (SK-OV-3 [10]; read-out: GI50) was greater than 75 µM and the LC50 (concentration killing 50% of cells) (SK-OV-3 [10]; read-out: LC50) was greater than 75 µM. It also gave a TGI (SK-OV-3 [10]; read-out: TGI) greater than 75 µM, a GI50 (SK-OV-3 [10]; read-out: pGI50 (converted)) greater than 75.9 µM and an LC50 (concentration killing 50% of cells) (SK-OV-3 [10]; read-out: pLC50 (converted)) greater than 75.9 µM. It also gave a TGI (SK-OV-3 [10]; read-out: pTGI) greater than 75.9 µM, a growth at 1 µM (KM12) of 99% and a growth at 1 µM (NCI-H322M) of 97%. The GI50 (MDA-MB-468; read-out: GI50) was greater than 75 µM, the CC50 (MDA-MB-468; [16]) was greater than 75 µM and the TGI (MDA-MB-468; read-out: TGI) was greater than 75 µM. For the same molecule, the GI50 (MDA-MB-468; read-out: pGI50 (converted)) was greater than 75.9 µM, the CC50 (MDA-MB-468; [17]) was greater than 75.9 µM and the TGI (MDA-MB-468; read-out: pTGI) was greater than 75.9 µM. The growth at 0.01 µM (CAKI-1 [11]) was 92%, the growth at 1 µM (OVCAR-3) was 109% and the growth at 1 µM (NCI-H522 [12]) was 86%. The growth at 100 µM (OVCAR-4 [13]) was 78%, the growth at 100 µM (HOP-62) was 87% and the GI50 (HCT-15; read-out: GI50) was greater than 75 µM. It also gave a CC50 (HCT-15; [16]) greater than 75 µM, a TGI (HCT-15; read-out: TGI) greater than 75 µM and a GI50 (HCT-15; read-out: pGI50 (converted)) greater than 75.9 µM. For the same molecule, the CC50 (HCT-15; [17]) was greater than 75.9 µM, the TGI (HCT-15; read-out: pTGI) was greater than 75.9 µM and the growth at 100 µM (SNB-75 [14]) was 50%. For the same molecule, the GI50 (SNB-75 [15]; read-out: GI50) was greater than 75 µM, the LC50 (SNB-75 [15]; read-out: LC50) was greater than 75 µM and the TGI (SNB-75 [15]; read-out: TGI) was greater than 75 µM. It also gave a GI50 (SNB-75 [15]; read-out: pGI50 (converted)) greater than 75.9 µM, an LC50 (SNB-75 [15]; read-out: pLC50 (converted)) greater than 75.9 µM and a TGI (SNB-75 [15]; read-out: pTGI) greater than 75.9 µM. It also gave a GI50 (786-0; read-out: GI50) greater than 75 µM, an LC50 (786-0; read-out: LC50) greater than 75 µM and a TGI (786-0; read-out: TGI) greater than 75 µM. For the same molecule, the GI50 (786-0; read-out: pGI50 (converted)) was greater than 75.9 µM, the LC50 (786-0; read-out: pLC50 (converted)) was greater than 75.9 µM and the TGI (786-0; read-out: pTGI) was greater than 75.9 µM.
